Values after ≈ are worked out from the molar mass of the structure shown. Read-outs that look alike come from different tables or passages of the source.
Assays:
Assay type in all cases: cell-based
[1] = tested on: K. pneumoniae; assay: Bacterial susceptibility testing, MIC by broth microdilution (CLSI); conditions: for MIC: Klebsiella pneumoniae, read-out: K. pneumoniae MIC
Protocol: (§1) Minimal inhibitory concentrations (MIC) were determined by the broth microdilution method in accordance with the Clinical and Laboratory Standards Institute (CLSI) guidelines. In brief, organism suspensions were adjusted to a 0.5 McFarland standard to yield a final inoculum between 3×10^5 and 7×10^5 colony-forming units (CFU)/mL. Drug dilutions and inocula were made in sterile, cation adjusted Mueller-Hinton Broth (Beckton Dickinson). An inoculum volume of 100 μL was added to wells containing 100 μL of broth with 2-fold serial dilutions of drug. All inoculated microdilution trays were incubated in ambient air at 35° C. for 18-24 h. Following incubation, the lowest concentration of the drug that prevented visible growth (OD600 nm<0.05) was recorded as the MIC. Performance of the assay was monitored by the use of laboratory quality-control strains and levofloxacin, a compound with a defined MIC spectrum, in accordance with CLSI guidelines.

[2] = tested on: S. aureus; assay: as above; conditions: for MIC: Staphylococcus aureus, read-out: S. aureus MIC
Protocol: as §1

[3] = tested on: E. coli; assay: as above; conditions: for MIC: Escherichia coli, read-out: E. coli MIC
Protocol: as §1

[4] = tested on: TLR-4 activity of A. baumannii culture supernatants; assay: TLR4 assay: TLR4 activity of A. baumannii culture supernatants in HEK-Blue-hTLR4 cells; conditions: Acinetobacter baumannii, HEK-Blue hTLR4, read-out: % TLR-4 activity
Protocol: The TLR4 assay measures activity of diluted filter-sterilized A. baumannii culture supernatants. The assay was performed as described in Lin et al, Mbio, 2012. Briefly, A. baumannii was passaged to mid log-phase in the presence of Forge LpxC inhibitors. Culture supernatants were harvested, filter-sterilized and diluted 1:1000. TLR4 activity of the supernatants was tested using HEK-Blue-hTLR4 cells (Invivogen) that carry NF-kB and AP-1 driven SEAP (secreted embryonic alkaline phosphatase) reporter gene.
Exemplary TLR4 assay data (% TLR-4 activity) for compounds in embodiments of the disclosure.

[5] = broth microdilution, 35° C., 18-24 h

Row | MIC [1, 5] [µg/mL] | MIC [2, 5] [µg/mL] | MIC [3, 5] [µg/mL] | Structure (SMILES) | also measured
1 | > 32 | > 32 | 1 to 8 (≈ 1.9 to 15.2 µM) | O=C(Nc1cnoc1)C(Cc1ccc(C#Cc2ccc(CN3CCOCC3)cc2)cc1)c1nc[nH]c(=O)c1O (centres unmarked) [Compound 4, 2-(5-hydroxy-6-oxo-1,6-dihydropyrimidin-4-yl)-N-(isoxazol-4-yl)-3-(4-((4-(morpholinomethyl)phenyl)ethynyl)phenyl) propanamide] | –
2 | > 32 | > 32 | 1 to 8 (≈ 2.12 to 16.9 µM) | CNC(=O)C(Cc1ccc(C#Cc2ccc(CN3CCOCC3)cc2)cc1)c1nc[nH]c(=O)c1O (centres unmarked) [Compound 5, 2-(5-hydroxy-6-oxo-1,6-dihydropyrimidin-4-yl)-N-methyl-3-(4-((4-(morpholinomethyl)phenyl)ethynyl)phenyl) propanamide] | –
3 | > 32 | > 32 | 8 to 32 (≈ 16 to 64.2 µM) | C=CCNC(=O)C(Cc1ccc(C#Cc2ccc(CN3CCOCC3)cc2)cc1)c1nc[nH]c(=O)c1O (centres unmarked) [Compound 6, N-allyl-2-(5-hydroxy-6-oxo-1,6-dihydropyrimidin-4-yl)-3-(4-((4-(morpholinomethyl)phenyl)ethynyl)phenyl)propanamide] | –
4 | > 32 | > 32 | 8 to 32 (≈ 15.9 to 63.7 µM) | O=C(NCCO)C(Cc1ccc(C#Cc2ccc(CN3CCOCC3)cc2)cc1)c1nc[nH]c(=O)c1O (centres unmarked) [Compound 7, 2-(5-hydroxy-6-oxo-1,6-dihydropyrimidin-4-yl)-N-(2-hydroxyethyl)-3-(4-((4-(morpholinomethyl)phenyl)ethynyl)phenyl) propanamide] | –
5 | > 32 | > 32 | > 32 | O=C(Nc1ccn[nH]1)C(Cc1ccc(C#Cc2ccc(CN3CCOCC3)cc2)cc1)c1nc[nH]c(=O)c1O (centres unmarked) [Compound 8, 2-(5-hydroxy-6-oxo-1,6-dihydropyrimidin-4-yl)-3-(4-((4-(morpholinomethyl)phenyl)ethynyl)phenyl)-N-(1H-pyrazol-5-yl)propanamide] | –
6 | > 32 | > 32 | > 32 | O=C(Nc1cnc[nH]1)C(Cc1ccc(C#Cc2ccc(CN3CCOCC3)cc2)cc1)c1nc[nH]c(=O)c1O (centres unmarked) [Compound 9, 2-(5-hydroxy-6-oxo-1,6-dihydropyrimidin-4-yl)-N-(1H-imidazol-5-yl)-3-(4-((4-(morpholinomethyl)phenyl)ethynyl)phenyl) propanamide] | –
7 | 8 to 32 (≈ 15.9 to 63.8 µM) | > 32 | 1 to 8 (≈ 1.99 to 15.9 µM) | NCCNC(=O)C(Cc1ccc(C#Cc2ccc(CN3CCOCC3)cc2)cc1)c1nc[nH]c(=O)c1O (centres unmarked) [Compound 10, N-(2-aminoethyl)-2-(5-hydroxy-6-oxo-1,6-dihydropyrimidin-4-yl)-3-(4-((4-(morpholinomethyl)phenyl)ethynyl)phenyl) propanamide] | –
8 | > 32 | > 32 | > 32 | O=C(Nc1nnn[nH]1)C(Cc1ccc(C#Cc2ccc(CN3CCOCC3)cc2)cc1)c1nc[nH]c(=O)c1O (centres unmarked) [Compound 11, 2-(5-hydroxy-6-oxo-1,6-dihydropyrimidin-4-yl)-3-(4-((4-(morpholinomethyl)phenyl)ethynyl)phenyl)-N-(1H-tetrazol-5-yl)propanamide] | –
9 | – | – | – | O=C(CF)NCC(Cc1ccc(C#Cc2ccc(CN3CC4CCC(C3)O4)cc2)cc1)c1nc[nH]c(=O)c1O (centres unmarked) [Compound 13, N-(3-(4-((4-((8-oxa-3-azabicyclo[3.2.1]octan-3-yl)methyl)phenyl)ethynyl)phenyl)-2-(5-hydroxy-6-oxo-1,6-dihydropyrimidin-4-yl)propyl)-2-fluoroacetamide] | MIC [1]: 1 to 8 µg/mL (≈ 1.88 to 15.1 µM); MIC [2]: > 32 µg/mL; MIC [3]: 1 to 8 µg/mL (≈ 1.88 to 15.1 µM)
10 | – | – | – | O=C(CF)NCC(Cc1ccc(C#Cc2ccc(CCN3CCOCC3)cc2)cc1)c1nc[nH]c(=O)c1O (centres unmarked) [Compound 16, 2-fluoro-N-(2-(5-hydroxy-6-oxo-1,6-dihydropyrimidin-4-yl)-3-(4-((4-(2-morpholinoethyl)phenyl)ethynyl)phenyl)propyl)acetamide] | MIC [1]: 8 to 32 µg/mL (≈ 15.4 to 61.7 µM); MIC [2]: > 32 µg/mL; MIC [3]: 1 to 8 µg/mL (≈ 1.93 to 15.4 µM)
11 | – | – | – | O=C(CF)NCC(Cc1ccc(C#Cc2ccc(CCN3CCOCC3)cc2)cc1)c1nc[nH]c(=O)c1O (centres unmarked) [Compound 17, 2-fluoro-N-(2-(5-hydroxy-6-oxo-1,6-dihydropyrimidin-4-yl)-3-(4-((4-(2-morpholinoethyl)phenyl)ethynyl)phenyl)propyl) acetamide] | K. pneumoniae MIC [1, 5]: C (C: >8.0 μg/mL to ≤32 μg/mL); S. aureus MIC [2, 5]: D (D: >32 μg/mL); E. coli MIC [3, 5]: B (B: >1 μg/mL to ≤8.0 μg/mL)
12 | 1 to 8 (≈ 1.85 to 14.8 µM) | > 32 | 1 to 8 (≈ 1.85 to 14.8 µM) | O=C(NCC(Cc1ccc(C#Cc2ccc(CN3CCOCC3)cc2)cc1)c1nc[nH]c(=O)c1O)C(F)(F)F (centres unmarked) [Compound 18, 2,2,2-trifluoro-N-(2-(5-hydroxy-6-oxo-1,6-dihydropyrimidin-4-yl)-3-(4-((4-(morpholinomethyl)phenyl)ethynyl)phenyl)propyl)acetamide] | –
13 | 8 to 32 (≈ 16.4 to 65.8 µM) | > 32 | 1 to 8 (≈ 2.06 to 16.4 µM) | CC(=O)NCC(Cc1ccc(C#Cc2ccc(CN3CCOCC3)cc2)cc1)c1nc[nH]c(=O)c1O (centres unmarked) [Compound 19, N-(2-(5-hydroxy-6-oxo-1,6-dihydropyrimidin-4-yl)-3-(4-((4-(morpholinomethyl)phenyl)ethynyl)phenyl)propyl)acetamide] | –
14 | 8 to 32 (≈ 16 to 64.2 µM) | > 32 | 1 to 8 (≈ 2.01 to 16 µM) | C=CC(=O)NCC(Cc1ccc(C#Cc2ccc(CN3CCOCC3)cc2)cc1)c1nc[nH]c(=O)c1O (centres unmarked) [Compound 20, N-(2-(5-hydroxy-6-oxo-1,6-dihydropyrimidin-4-yl)-3-(4-((4-(morpholinomethyl)phenyl)ethynyl)phenyl)propyl)acrylamide] | –
15 | 8 to 32 (≈ 15.1 to 60.5 µM) | > 32 | 1 to 8 (≈ 1.89 to 15.1 µM) | COC(=O)NCC(Cc1ccc(C#Cc2ccc(CN3CC4CCC(C3)O4)cc2)cc1)c1nc[nH]c(=O)c1O (centres unmarked) [Compound 21, methyl (3-(4-((4-((8-oxa-3-azabicyclo[3.2.1]octan-3-yl)methyl)phenyl)ethynyl)phenyl)-2-(5-hydroxy-6-oxo-1,6-dihydropyrimidin-4-yl)propyl)carbamate] | –
16 | – | – | – | CC(NC(=O)CF)C(Cc1ccc(C#Cc2ccc(CN3CCOCC3)cc2)cc1)c1nc[nH]c(=O)c1O (centres unmarked) [Compound 42, 2-fluoro-N-(3-(5-hydroxy-6-oxo-1,6-dihydropyrimidin-4-yl)-4-(4-((4-(morpholinomethyl)phenyl)ethynyl)phenyl)butan-2-yl)acetamide] | MIC [1]: > 32 µg/mL; MIC [2]: > 32 µg/mL; MIC [3]: > 32 µg/mL
17 | – | – | – | O=c1[nH]cnc(C(CNCCF)Cc2ccc(C#Cc3ccc(CN4CCOCC4)cc3)cc2)c1O (centres unmarked) [Compound 58, 6-(1-((2-fluoroethyl)amino)-3-(4-((4-(morpholinomethyl)phenyl)ethynyl)phenyl)propan-2-yl)-5-hydroxypyrimidin-4(3H)-one] | activity at 4 µg/mL [4]: < 20%; activity at 8 µg/mL [4]: < 20%; activity at 16 µg/mL [4]: < 20%
18 | – | – | – | CCCNCC(Cc1ccc(C#Cc2ccc(CN3CCOCC3)cc2)cc1)c1nc[nH]c(=O)c1O (centres unmarked) [Compound 60, 5-hydroxy-6-(1-(4-((4-(morpholinomethyl)phenyl)ethynyl)phenyl)-3-(propylamino)propan-2-yl)pyrimidin-4(3H)-one] | activity at 4 µg/mL [4]: > 80%; activity at 8 µg/mL [4]: > 80%; activity at 16 µg/mL [4]: > 80%
19 | – | – | – | N#CC1CCN(Cc2ccc(C#Cc3ccc(CC(C(=O)NCC(F)F)c4nc[nH]c(=O)c4O)cc3)cc2)C1 (centres unmarked) [Compound 102, 3-(4-((4-((3-cyanopyrrolidin-1-yl)methyl)phenyl)ethynyl)phenyl)-N-(2,2-difluoroethyl)-2-(5-hydroxy-6-oxo-1,6-dihydropyrimidin-4-yl)propanamide] | activity at 4 µg/mL [4]: 20 to 50%; activity at 8 µg/mL [4]: < 20%; activity at 16 µg/mL [4]: < 20%
20 | > 32 | – | > 32 | O=c1[nH]cnc(C2(Cc3ccc(C#Cc4ccc(CN5CCOCC5)cc4)cc3)CC2)c1O [Compound 246, 5-hydroxy-6-(1-(4-((4-(morpholinomethyl)phenyl)ethynyl)benzyl)cyclopropyl)pyrimidin-4(3H)-one] | –
21 | 8 to 32 (≈ 18.1 to 72.5 µM) | – | 1 to 8 (≈ 2.26 to 18.1 µM) | O=c1[nH]cnc(C2(Cc3ccc(C#Cc4ccc(CN[C@@H]5CCOC5)cc4)cc3)CC2)c1O [Compound 247, (R)-5-hydroxy-6-(1-(4-((4-(((tetrahydrofuran-3-yl)amino)methyl)phenyl)ethynyl)benzyl)cyclopropyl)pyrimidin-4(3H)-one] | –
22 | > 32 | – | < 1 | O=c1[nH]cnc(C(Cc2ccc(C#Cc3ccc(CN4CCOCC4)cc3)cc2)CN2CCOCC2)c1O (centres unmarked) [Compound 249, 5-hydroxy-6-(1-morpholino-3-(4-((4-(morpholinomethyl)phenyl)ethynyl)phenyl)propan-2-yl)pyrimidin-4(3H)-one] | –
23 | > 32 | – | > 32 | O=c1[nH]cnc(C(CNCCc2cccnc2)Cc2ccc(C#Cc3ccc(CN4CCOCC4)cc3)cc2)c1O (centres unmarked) [Compound 251, 5-hydroxy-6-(1-(4-((4-(morpholinomethyl)phenyl)ethynyl)phenyl)-3-((2-(pyridin-3-yl)ethyl)amino)propan-2-yl)pyrimidin-4(3H)-one] | –

From US20200095236A1, “ANTIBACTERIAL COMPOUNDS” (FORGE THERAPEUTICS, INC., priority 2017, published 2020)
